This test concerns the target T1, human FAAH (Homo sapiens, UniProt O00519).
T1 construct: expressed in transfected cells; host or cells: H4 cells stably transfected with human FAAH (Geneticin selection); crude membrane homogenates
T1 sequence (O00519 1-579): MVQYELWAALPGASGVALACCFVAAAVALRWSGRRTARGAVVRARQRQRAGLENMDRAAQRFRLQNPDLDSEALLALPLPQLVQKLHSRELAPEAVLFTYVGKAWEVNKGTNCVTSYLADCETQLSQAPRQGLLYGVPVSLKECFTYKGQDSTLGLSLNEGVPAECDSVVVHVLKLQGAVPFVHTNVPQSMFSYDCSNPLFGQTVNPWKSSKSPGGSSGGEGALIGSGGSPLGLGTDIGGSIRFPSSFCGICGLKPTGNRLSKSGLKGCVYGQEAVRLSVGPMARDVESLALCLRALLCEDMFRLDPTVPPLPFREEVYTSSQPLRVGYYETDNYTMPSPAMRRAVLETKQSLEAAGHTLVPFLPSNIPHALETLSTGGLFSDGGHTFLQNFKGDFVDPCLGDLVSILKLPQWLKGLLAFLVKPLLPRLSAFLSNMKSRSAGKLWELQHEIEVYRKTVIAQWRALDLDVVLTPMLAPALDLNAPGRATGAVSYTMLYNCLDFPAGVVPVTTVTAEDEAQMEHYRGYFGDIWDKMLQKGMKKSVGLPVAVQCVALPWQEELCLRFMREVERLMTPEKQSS
As to the kind of experiment: Determination of FAAH activity (membrane homogenates of H4-FAAH cells, [3H]-anandamide hydrolysis). The class given is biochemical. To be noted: transfected human FAAH, H4-FAAH cell membranes, 10 μM anandamide, room temperature, one hour. The method, then: Homogenates of crude membranes were prepared from H4 cells that express transfected human FAAH (H4-FAAH cells). Briefly, cells were grown in DMEM supplemented with 10% FBS and Geneticin at a final concentration of 500 μg/ml (Gibco BRL, Rockville, Md.). Confluent cultures of H4-FAAH cells were rinsed twice with phosphate-buffered saline [138 mM NaCl, 4.1 mM KCl, 5.1 mM Na2PO4, 1.5 mM KH2PO4 (pH 7.5), 37° C.] and incubated for 5-10 min. at 4° C. in lysis buffer [1 mM sodium bicarbonate]. Cells were transferred from plates to polypropylene tubes (16×100 mm), homogenized and centrifuged at 32,000×g for 30 min. Pellets were resuspended by homogenization in lysis buffer and centrifuged at 32,000×g for 30 min. Pellets were resuspended in lysis buffer (15-20 μg protein/ml) then stored at −80° C. until needed. On the day of an experiment, membranes were diluted to 2.67 μg protein/ml in 125 mM Tris-Cl, pH 9.0
Activity of FAAH was measured using a modification of the method described by Omeir et al., 1995 (Life Sci 56:1999, 1995). Membrane homogenates (240 ng protein) were incubated at room temperature for one hour with 1.67 nM anandamide [ethanolamine 1-^3H] (American Radiolabeled Chemical Inc., St Louis, Mo.) and 10 μM anandamide (Sigma/RBI, St. Louis, Mo.) in the absence and presence of inhibitors. The reaction was stopped by the addition of 1 volume of a solution of methanol and dichloroethane (1:1). The mixture was shaken and then centrifuged at 1000×g for 15 min. to separate the aqueous and organic phases. An aliquot of the aqueous phase, containing [^3H]-ethanolamine was withdrawn and counted by scintillation spectroscopy. Data were expressed as the percentage of [^3H]-ethanolamine formed versus vehicle, after subtraction of the background radioactivity determined in the presence of 10 μM arachidonyl trifluoromethyl ketone (ATFMK), an inhibitor of FAAH. IC50 values were determined using a four-parameter logistic equation for dose-response curves.

Each structure is given as a SMILES string.

From patent publication USRE39634E1, “Bisarylimidazoly fatty acid amide hydrolase inhibitors” (Bristol-Myers Squibb Company, priority 2001, dated 2007) come the findings set out here.

In general, IC50 refers to the point on the concentration scale where inhibition reaches its midpoint. Higher therefore signals weaker potency.

For `CCc1nc(-c2ccccc2)c(-c2ccccc2)n1CCCCCCNC(=O)OC(C)(C)C` [Example 2, [6-(2-Ethyl-4,5-diphenyl-imidazol-1-yl)-hexyl]-carbamic acid tert-butyl ester], the 50% inhibitory concentration (IC50) was in the range of 1 to 10 µM.

In the case of `CCc1nc(-c2ccccc2)c(-c2ccccc2)n1CCCCCCNC(=O)OC(C)CC` (stereo not shown) [Example 3], the 50% inhibitory concentration (IC50) was in the range of 1 to 10 µM.

In turn, `Cc1nc(-c2ccccc2)c(-c2ccccc2)n1CCCCCCNC(=O)OCc1ccccc1` [Example 5, [6-(2-Methyl-4,5-diphenyl-imidazol-1-yl)-hexyl]-carbamic acid benzyl ester] gave a concentration for half-maximal inhibition (IC50) of 1 to 10 µM.

As for `CC(C)=NOC(=O)NCCCCCCn1c(C)nc(-c2ccccc2)c1-c1ccccc1` [Example 6, 2-Propanone,O-[6-(2-methyl-4,5-diphenyl-1H-imidazol-1-yl)hexylaminocarbonyl]oxime], the IC50 lay within 0.01 to 0.1 µM.

Compound `COC(=O)NCCCCCCn1c(C)nc(-c2ccccc2)c1-c1ccccc1` [Example 8, [6-(2-Methyl-4,5-diphenyl-imidazol-1-yl)-hexyl]-carbamic acid methyl ester] showed a concentration for half-maximal inhibition (IC50) of 0.1 to 1 µM.

As to `Cc1nc(-c2ccccc2)c(-c2ccccc2)n1CCCCCCNC(=O)Oc1ccccc1` [Example 9], the IC50 was below 0.01 µM.

Consider `Cc1nc(-c2ccccc2)c(-c2ccccc2)n1CCCCCCNC(=O)Oc1ccc(F)cc1` [Example 10, [6-(2-Methyl-4,5-diphenyl-imidazol-1-yl)-hexyl]-carbamic acid 4-fluoro-phenyl ester], for which the 50% inhibitory concentration (IC50) was below 0.01 µM.

With `Cc1nc(-c2ccccc2)c(-c2ccccc2)n1CCCCCCNC(=O)Oc1ccc(F)cc1F` [Example 11, [6-(2-Methyl-4,5-diphenyl-imidazol-1-yl)-hexyl]-carbamic acid 2,4-difluoro-phenyl ester], the 50% inhibitory concentration (IC50) was below 0.01 µM.

`Cc1nc(-c2ccccc2)c(-c2ccccc2)n1CCCCCCNC(=O)Oc1ccc(Cl)cc1` [Example 12, [6-(2-Methyl-4,5-diphenyl-imidazol-1-yl)-hexyl]-carbamic acid 4-chloro-phenyl ester] came in with an IC50 below 0.01 µM.

`COc1ccc(OC(=O)NCCCCCCn2c(C)nc(-c3ccccc3)c2-c2ccccc2)cc1` [Example 13, [6-(2-Methyl-4,5-diphenyl-imidazol-1-yl)-hexyl]-carbamic acid 4-methoxy-phenyl ester] gave an IC50 of 0.01 to 0.1 µM.

In turn, `Cc1ccccc1OC(=O)NCCCCCCn1c(C)nc(-c2ccccc2)c1-c1ccccc1` [Example 14, [6-(2-Methyl-4,5-diphenyl-imidazol-1-yl)-hexyl]-carbamic acid o-tolyl ester] came in with an IC50 below 0.01 µM.

Consider `Cc1nc(-c2ccccc2)c(-c2ccccc2)n1CCCCCCNC(=O)Oc1ccc(C#N)cc1` [Example 15, [6-(2-Methyl-4,5-diphenyl-imidazol-1-yl)-hexyl]-carbamic acid 4-cyano-phenyl ester], for which the half-maximal inhibitory concentration (IC50) was in the range of 0.01 to 0.1 µM.

`COc1cccc(OC)c1OC(=O)NCCCCCCn1c(C)nc(-c2ccccc2)c1-c1ccccc1` [Example 16, [6-(2-Methyl-4,5-diphenyl-imidazol-1-yl)-hexyl]-carbamic acid 2,6-dimethoxy-phenyl ester] registered a half-maximal inhibitory concentration (IC50) of 0.1 to 1 µM.

Consider `COc1ccccc1OC(=O)NCCCCCCn1c(C)nc(-c2ccccc2)c1-c1ccccc1` [Example 17, [6-(2-Methyl-4,5-diphenyl-imidazol-1-yl)-hexyl]-carbamic acid 2-methoxy-phenyl ester], for which the IC50 is 0.1 to 1 µM.

Regarding `COC(=O)NCCCCCCCn1c(C)nc(-c2ccccc2)c1-c1ccccc1` [Example 18, [7-(2-Methyl-4,5-diphenyl-imidazol-1-yl)-heptyl]-carbamic acid methyl ester], the concentration for half-maximal inhibition (IC50) is 0.1 to 1 µM.

As for `CCOC(=O)NCCCCCCCn1c(C)nc(-c2ccccc2)c1-c1ccccc1` [Example 19, [7-(2-Methyl-4,5-diphenyl-imidazol-1-yl)-heptyl]-carbamic acid ethyl ester], the IC50 was in the range of 0.01 to 0.1 µM.

`Cc1nc(-c2ccccc2)c(-c2ccccc2)n1CCCCCCCNC(=O)Oc1ccccc1` [Example 20, [7-(2-Methyl-4,5-diphenyl-imidazol-1-yl)-heptyl]-carbamic acid phenyl ester] showed a half-inhibitory concentration (IC50) below 0.01 µM.

`Cc1nc(-c2ccccc2)c(-c2ccccc2)n1CCCCCCCNC(=O)Oc1ccc(F)cc1` [Example 21, [7-(2-Methyl-4,5-diphenyl-imidazol-1-yl)-heptyl]-carbamic acid 4-fluoro-phenyl ester] yielded an IC50 of 0.01 to 0.1 µM.

The compound `Cc1nc(-c2ccccc2)c(-c2ccccc2)n1CCCCCCCNC(=O)Oc1ccccc1F` [Example 22, [7-(2-Methyl-4,5-diphenyl-imidazol-1-yl)-heptyl]-carbamic acid 2-fluoro-phenyl ester] had an IC50 below 0.01 µM.

As to `Cc1nc(-c2ccccc2)c(-c2ccccc2)n1CCCCCCCNC(=O)Oc1ccc(F)cc1F` [Example 23, [7-(2-Methyl-4,5-diphenyl-imidazol-1-yl)-heptyl]-carbamic acid 2,4-difluoro-phenyl ester], the IC50 was in the range of 0.01 to 0.1 µM.

As to `Cc1nc(-c2ccccc2)c(-c2ccccc2)n1CCCCCCCNC(=O)Oc1ccc(Cl)cc1` [Example 24, [7-(2-Methyl-4,5-diphenyl-imidazol-1-yl)-heptyl]-carbamic acid 4-chloro-phenyl ester], the half-maximal inhibitory concentration (IC50) was below 0.01 µM.

The compound `COc1ccc(OC(=O)NCCCCCCCn2c(C)nc(-c3ccccc3)c2-c2ccccc2)cc1` [Example 25, [7-(2-Methyl-4,5-diphenyl-imidazol-1-yl)-heptyl]-carbamic acid 4-methoxy-phenyl ester] had a 50% inhibitory concentration (IC50) of 0.01 to 0.1 µM.

In the case of `Cc1ccccc1OC(=O)NCCCCCCCn1c(C)nc(-c2ccccc2)c1-c1ccccc1` [Example 26, [7-(2-Methyl-4,5-diphenyl-imidazol-1-yl)-heptyl]-carbamic acid o-tolyl ester], the IC50 fell in the range of 0.01 to 0.1 µM.

`Cc1nc(-c2ccccc2)c(-c2ccccc2)n1CCCCCCCNC(=O)Oc1ccc(C#N)cc1` [Example 27, [7-(2-Methyl-4,5-diphenyl-imidazol-1-yl)-heptyl]-carbamic acid 4-cyano-phenyl ester] displayed an IC50 below 0.01 µM.

Turning to `COc1cccc(OC)c1OC(=O)NCCCCCCCn1c(C)nc(-c2ccccc2)c1-c1ccccc1` [Example 28, [7-(2-Methyl-4,5-diphenyl-imidazol-1-yl)-heptyl]-carbamic acid 2,6-dimethoxy-phenyl ester], the half-inhibitory concentration (IC50) fell in the range of 0.1 to 1 µM.

The compound `COc1ccccc1OC(=O)NCCCCCCCn1c(C)nc(-c2ccccc2)c1-c1ccccc1` [Example 29, [7-(2-Methyl-4,5-diphenyl-imidazol-1-yl)-heptyl]-carbamic acid 2-methoxy-phenyl ester] returned an IC50 of 0.01 to 0.1 µM.

Turning to `CCOC(=O)NCCCCCn1c(C)nc(-c2ccccc2)c1-c1ccccc1` [Example 30, [5-(2-Methyl-4,5-diphenyl-imidazol-1-yl)-pentyl]-carbamic acid ethyl ester], the half-inhibitory concentration (IC50) is 0.1 to 1 µM.

In the case of `Cc1nc(-c2ccccc2)c(-c2ccccc2)n1CCCCCNC(=O)Oc1ccccc1` [Example 31, [5-(2-Methyl-4,5-diphenyl-imidazol-1-yl)-pentyl]-carbamic acid phenyl ester], the IC50 was in the range of 0.01 to 0.1 µM.

In turn, `Cc1nc(-c2ccccc2)c(-c2ccccc2)n1CCCCCNC(=O)Oc1ccc(F)cc1` [Example 32, [5-(2-Methyl-4,5-diphenyl-imidazol-1-yl)-pentyl]-carbamic acid 4-fluoro-phenyl ester] came in with an IC50 of 0.01 to 0.1 µM.

Compound `Cc1nc(-c2ccccc2)c(-c2ccccc2)n1CCCCCNC(=O)Oc1ccc(F)cc1F` [Example 33, [5-(2-Methyl-4,5-diphenyl-imidazol-1-yl)-pentyl]-carbamic acid 2,4-difluoro-phenyl ester] showed a concentration for half-maximal inhibition (IC50) of 0.01 to 0.1 µM.

`Cc1nc(-c2ccccc2)c(-c2ccccc2)n1CCCCCNC(=O)Oc1ccccc1F` [Example 34, [5-(2-Methyl-4,5-diphenyl-imidazol-1-yl)-pentyl]-carbamic acid 2-fluoro-phenyl ester] yielded a half-inhibitory concentration (IC50) of 0.01 to 0.1 µM.
